Columns and labels:
NF-κB signaling pathway = experiment: NF-κB-dependent luciferase reporter (5×κB-luciferase/pTK-Renilla), TNF-α-induced, HeLa cells; format: cell-based; conditions: RA-V 6 h, then 10 ng/mL TNF-α 2 h, three independent experiments
Method: Fig. 1 RA-V inhibits TNF-α- and LPS-induced activation of NF-κB. a Chemical structure of RA-V. b RA-V inhibited the NF-κB signaling pathway in a dose-dependent manner. HEK293T or HeLa cells were transfected with the 5 × κB-luciferase and pTK-Renilla reporters. Twenty-four hours after transfection, the cells were incubated with various concentrations of RA-V for 6 h, and then treated with 10 ng/mL TNF-α for 2 h before the luciferase activity assay and MTT assay. c RA-V reduced TNF-α-induced expression of NF-κB target genes. HEK293T or HeLa cells were treated with various concentrations of RA-V for 24 h and stimulated with 10 ng/mL TNF-α for 2 h. The expression of the NF-κB target genes, IL-8, MCP-1, and E-selectin was measured by quantitative RT-PCR and normalized to GADPH expression. d RA-V inhibited TNF-α-induced p65 phosphorylation, IκBα phosphorylation and IκBα degradation. HEK293T or HeLa cells were incubated with various concentrations of RA-V for 24 h and treated with 10 ng/mL TNF-α for 10 min. The cell lysates were prepared and subjected to western blot analysis with the indicated antibodies. e RA-V inhibited TNF-α-induced IL-8 production. […] The expression of IL-6 was measured. h RA-V inhibited LPS-induced p65 phosphorylation, IκBα phosphorylation. […] The protein expression was measured. i RA-V inhibited LPS-induced IL-6 production. […] The expression of IL-6 was measured. […]

NF-κB activation = experiment: Bioluminescence imaging of NF-κB-luciferase transgenic mice in the endotoxin shock model; format: in vivo; conditions: RA-V micelles 0.25 mg/kg i.v. 52, 28, 4 h before LPS 10 mg/kg i.p.; n = 4; particularly 2 h after LPS
Method: Fig. 2 RA-V prevents endotoxic shock and inhibits NF-κB activation in vivo. a–c RA-V prevents endotoxic shock in vivo. Mice (n = 6 per group) were intravenously injected with RA-V micelles (0.25 mg/kg body weight) or control micelles 52, 28, and 4 h before an intraperitoneal injection of LPS (10 mg/kg). One hour later, the relative levels of IL-6 and TNF-α mRNAs in the liver were assessed by quantitative RT-PCR (a), the serum IL-6 and TNF-α levels were quantified by ELISA (b), and the expression of p65 and IκBα phosphorylation in the liver were measured by immunoblot analysis c. d RA-V improved animal survival. Mice (n = 20 per group) were intravenously injected with RA-V micelles (0.25 mg/kg body weight) or control micelles 52, 28, and 4 h before intraperitoneal injection of LPS (20 mg/kg). Animal survival was recorded in 2–3 hours intervals. e RA-V inhibits NF-κB activation in vivo. […] The bioluminescent signals from all of the mice were detected and quantified. […]
The bioluminescence imaging of the NF-κB-luciferase transgenic mice was performed using a Xenogen IVIS Spectrum in vivo imaging system (Caliper Life Sciences). […] After 15 min, the in vivo bioluminescence was measured at the indicated times. The bioluminescent signals from all of the mice were detected and quantified.

HEK293T and HeLa cells = experiment: MTT assay; format: cell-based; conditions: under reporter-assay treatment, high concentrations
Method: Fig. 1 RA-V inhibits TNF-α- and LPS-induced activation of NF-κB. a Chemical structure of RA-V. b RA-V inhibited the NF-κB signaling pathway in a dose-dependent manner. HEK293T or HeLa cells were transfected with the 5 × κB-luciferase and pTK-Renilla reporters. Twenty-four hours after transfection, the cells were incubated with various concentrations of RA-V for 6 h, and then treated with 10 ng/mL TNF-α for 2 h before the luciferase activity assay and MTT assay. c RA-V reduced TNF-α-induced expression of NF-κB target genes. HEK293T or HeLa cells were treated with various concentrations of RA-V for 24 h and stimulated with 10 ng/mL TNF-α for 2 h. The expression of the NF-κB target genes, IL-8, MCP-1, and E-selectin was measured by quantitative RT-PCR and normalized to GADPH expression. d RA-V inhibited TNF-α-induced p65 phosphorylation, IκBα phosphorylation and IκBα degradation. […] The expression of IL-6 was measured. h RA-V inhibited LPS-induced p65 phosphorylation, IκBα phosphorylation. […] The protein expression was measured. i RA-V inhibited LPS-induced IL-6 production. […] The expression of IL-6 was measured.
HEK293T cells (5 × 10^3 cells/well) or HeLa cells (3 × 10^3 cells/well) were seeded in a 96-well plate with 100 μL medium and cultured for 12 h in a CO2 incubator. […] After 4 h, the medium was replaced with 150 μL DMSO, and the optical density was measured at […] (Molecular Devices). […]

For RA-V, the IC50 (NF-κB signaling pathway) was 0.171 µM, the “NF-κB activation, in vivo bioluminescence” value (NF-κB activation) was “inhibited NF-κB activation” and the “antiproliferative effect (MTT)” value (HEK293T and HeLa cells) was “only a slight antiproliferative effect”.

Source: PMC6006164, “Natural cyclopeptide RA-V inhibits the NF-κB signaling pathway by targeting TAK1” (Cell Death & Disease, 2018)
